Test results from patent publication US20260191998A1, “INDOLE PHTHALOCYANINE COMPOUND, PREPARATION METHOD THEREFOR, AND USE THEREOF IN TUMOR DIAGNOSIS IMAGING” (JIANGSU YAHONG MEDITECH CO., LTD., priority 2022, published 2026).
Where a name gives a salt, the structure may show the parent alone.

Experiments:
[1] = Kinetic solubility in phosphate buffered saline (HPLC); type: physicochemical; conditions: phosphate buffered saline (PBS), aqueous buffer, kinetic from dmso stock, 25° C., shaken 2 hours, from 10 mM DMSO stock
Procedure: The compounds were weighed in an appropriate amount and dissolved in DMSO to prepare a 10 mM stock solution. 30 μL of the stock solution was taken and 970 μL of phosphate buffered saline solution (PBS) was added thereto. The solution was shaken at 25° C. on a thermostatic mixer for 2 hours, and centrifuged at 12000 rpm for 10 minutes. The supernatant was taken, and the kinetic solubility of each compound in phosphate buffered saline solution (PBS) was determined by Waters Acquity Arc HPLC.

hERG channels = hERG channels (Homo sapiens, UniProt Q12809); assay: hERG whole-cell patch clamp in HEK 293 cells stably expressing hERG; type: cell-based; conditions: HEK 293 stably expressing hERG, tail current
Procedure: The HEK 293 cell line (K1236) stably expressing hERG was purchased from Invitrogen. Cells were cultured in 85% DMEM, 10% dialyzed FBS, 0.1 mM NEAA, 25 mM HEPES, 100 U/mL penicillin-streptomycin, 5 μg/mL blasticidin and 400 μg/mL geneticin. Cells were split using TrypLE™ about three times a week, and maintained at a confluence of about 40% to about 80%. Before measurement, cells were cultured at a density of 5×10^5 in a 6 cm culture dish and induced with 1 μg/mL doxycycline for 48 hours.
Extracellular solution (mM): 132 NaCl, 4 KCl, […], 0.5 MgCl2, 11.1 glucose, 10 HEPES (pH 7.35 adjusted with NaOH);
Intercellular solution (mM): 140 KCl, 2 MgCl2, 10 EGTA, 10 HEPES, 5 MgATP (pH 7.35 adjusted with KOH).
The test compounds were formulated in DMSO to prepare a stock solution with a final concentration of 10 mM.
Then, the stock solution of each compound was diluted with DMSO in a 1:3 serial dilution to prepare five intermediate solutions with concentrations of 3, 1, 0.33, 0.12, 0.04 mM or 3.33, 1.11, 0.37, 0.12 mM, respectively.
Before testing, the final working solutions were prepared by diluting the intermediate solutions 1000 times with the extracellular solution. The concentration of DMSO in the working solutions was within a range around 0.1%.
The working solutions at five different concentrations of 3, 1, 0.33, 0.12 and 0.04 μM were used to determine the potential inhibition effect of the compounds on hERG channels and to fit concentration-response curves and calculate IC50.
The coverslip was removed from the cell culture dish and placed on a microscope stage.
A 10× objective was used to locate cells to be observed. An electrode tip was located under the microscope using the 10× objective by focusing above the plane of the cells. Once the tip was in focus, the electrode was advanced downward towards the cells under rough control of the manipulator, while the objective was moved so as to keep the tip in focus.
When the electrode was directly over a cell, the objective was switched to a 40× objective and fine control of the manipulator was used to enable to gradually approach the cell surface.
With gentle suction through a side port of an electrode holder, a giga-ohm seal was formed.
Cfast was used to eliminate the capacitive current consistent with the voltage step. Brief and strong suction was applied repeatedly until the membrane patch ruptured and the whole-cell configuration was obtained.
At this point, membrane potential was set to −60 mV in order to ensure that hERG channels were not open. Then, Cslow on the amplifier was used to remove the spikes of capacitive current.
Holding potential was set to −90 mV for 500 ms. Current was recorded at 20 kHz and filtering was carried out at 10 kHz. Leak current was tested at −80 mV for 500 ms.
The hERG current was elicited by depolarizing at +30 mV for 4.8 seconds, and then the voltage was restored to −50 mV for 5.2 seconds to remove the inactivation and observe the deactivating tail current. The maximum of tail current size was used to determine hERG current amplitude.
Current was recorded for 120 seconds to evaluate the current stability. Only stable cells with recording parameters above thresholds were used for drug administrations.
Firstly, vehicle control was applied to the cells to establish the baseline. […] The hERG current in the presence of the test compound was recorded for about 5 minutes to reach a steady state, and then 5 sweeps were captured. For dose-response testing, multiple compounds were applied to the cells cumulatively from low to high concentrations (multiple compounds were detected simultaneously). The positive control, Dofetilide at a concentration of 150 nM, was also applied to each cell post hERG current measurement at the highest concentration of the test compound, which was used as an internal low control for normalization of percentage inhibition. […]

[2] = UV-VIS absorption spectra (optical property test); type: physicochemical; conditions: 10 μM, DMSO solution; for Absorbance × 10^4: at maximum absorption peak
Procedure: The UV-VIS absorption spectra of the compounds (10 μM, DMSO solution) were detected using Shimadzu UV2600 spectrophotometer, and the maximum absorption peak and absorbance of each compound were obtained.

[3] = MRC5 proliferation test (CellTiter-Glo); type: cell-based; conditions: human, MRC5 cells (normal cells), 3 days incubation, read-out: MRC5 (IC50, nM), inhibitory effect on proliferation of normal cells
Description: • MRC5 (ATCC; Cat. No.: CCL-171)
• Culture medium EMEM (ATCC, 30-2003) • Fetal bovine serum (Gibco, 10091148) • Penicillin-streptomycin double antibody (Gibco, S110JV) • DPBS (Gibco, 14190-144) • CellTiter-Glo® assay kit (Promega, G7573) • Trypsin (0.25%) (Gibco, 25200-056) • DMSO (Sigma, D2650)
• Biosafety cabinet (AIRTECH, BSC-1300A II) • Automated cell counter (Life Technologies, countess II) • Multifunctional microplate reader (Biotek, H1FM) • Shaker (Hangzhou Allsheng Instruments Co., Ltd., OS-100) • XLFIT 5.3 (Shanghai Inforstack Co., Ltd.)
For this test method, the following experiment was performed in a biosafety cabinet with the specific steps as follows. • (1) Cells were seeded in a […] (in which the culture medium was EMEM). One day later, the previous culture medium EMEM was poured off, and 5 mL of DPBS was added to wash the cells. Then DPBS was pipetted and discarded. An appropriate amount of trypsin was then added. The plate was placed in a 5% CO2 cell incubator at 37° C. to digestion for about 2 to 5 minutes, and then taken out. New culture medium EMEM was added. The cells were pipetted up and down to resuspend evenly. The cells were then counted by an automated cell counter. • (2) Cells were seeded in columns 1 to 11 of a 96-well plate (Corning, Cat. No. 3610) at a density of 3000 cells per well in 100 μL of culture medium EMEM, and 100 μL of culture medium EMEM free of cells was added into column 12 of the wells. Then, the plate was placed in the 5% CO2 incubator at 37° C. for 24 hours. • (3) Next, the compound of the present invention was 2-fold serially diluted into 8 dose points starting at 10 μM. 10 μL of the serially diluted compound was pipetted and added to 100 μL of cells in columns 1 to 10, and 10 μL of the culture medium EMEM containing 2% DMSO was added to both columns 11 and 12. The plate was placed in the 5% CO2 incubator at 37° C. and incubated for 3 days (Note: column 11 was used as a MAX well with cells but without the compound; column 12 was used as a MIN well without both cell and compound). • (4) The cell viability detection reagent in the above CellTiter-Glo® assay kit was then added to the 96-well plate at 50 μL per well according to the instruction, and shaken on a shaker in dark for 5 to 10 minutes. The cell viability was then measured using a multifunctional microplate reader. Finally, the inhibition of the compound of the present invention on cell proliferation was plotted by XLFIT software, and the half inhibitory concentration, IC50 value of the compound of the present invention was calculated therefrom.

RT112 tumor [4] = assay: Tumor/background ratio in subcutaneous RT112 tumor model mice; type: in vivo; conditions: 2 mpk intraperitoneal, 48 hours after injection
Description: The subcutaneous tumor model mice inoculated with RT112 tumor were selected. Each compound was administrated at a dose of 2 mpk, and intraperitoneally injected.

[5] = test system: human bladder cancer cell line UM-UC-3; assay: In vitro imaging effect test with addition of BSP, UM-UC-3; type: cell-based; conditions: 250 μM BSP, compound 1-20 μM with surfactin 1:5, 30 minutes
Procedure: UM-UC-3 (1.5×10^4/well) were cultured in EMEM medium (containing 10% fetal bovine serum (FBS) and 1% antibiotics (100 U/mL penicillin and 100 U/mL streptomycin)) and seeded in a 96-well plate in advance. The plate was cultured in a 5% CO2 cell culture incubator at 37° C. overnight. The following day, the culture medium was sucked away, and 250 μM of BSP was added to the test wells and preconditioned for 10 minutes, followed by addition of the culture medium containing an appropriate concentration (1-20 μM) of the compound and surfactin (the molar ratio of the test compound to the surfactin being 1:5) with or without 250 μM of BSP, and then incubated for 30 minutes. The cells were rinsed three times with PBS solution, and the near-infrared fluorescence intensity in the bladder cancer cells was observed using an integrated fluorescence microscopic imaging system from Keyence. The conditions for near-infrared photography were Ex=775/50 nm and Em=845/55 nm.

RT112 tumor [6] = conditions: 2 mg/kg or 0.4 mg/kg intraperitoneal, 48 hours after injection
Procedure: All animal experiments were conducted exactly in accordance with the guidelines for the care and use of animals issued by the regional animal committee. A mouse model of xenograft RT112 tumor was established by subcutaneous injection of RT112 cell suspension (2×10^6 cells/mouse, 0.1 ml PBS) into the upper right limb of 8- to 10-week-old BALB/C female nude mice (20 to 25 g). BABL/c nude mice (15 to 20 g) were purchased from Beijing Vital River Laboratory Animal Technology Co., Ltd. For in vivo near-infrared fluorescence (NIRF) imaging, the RT112 tumor-bearing mice were intraperitoneally injected with different doses of free compounds (2 mg/kg or 0.4 mg/kg), respectively. At 48 hours after injection, near-infrared imaging was performed using an IVIS Lumina spectroscopic imaging system (excitation/emission, 780/845 nm).

Chain of hERG channels (Q12809 whole entry): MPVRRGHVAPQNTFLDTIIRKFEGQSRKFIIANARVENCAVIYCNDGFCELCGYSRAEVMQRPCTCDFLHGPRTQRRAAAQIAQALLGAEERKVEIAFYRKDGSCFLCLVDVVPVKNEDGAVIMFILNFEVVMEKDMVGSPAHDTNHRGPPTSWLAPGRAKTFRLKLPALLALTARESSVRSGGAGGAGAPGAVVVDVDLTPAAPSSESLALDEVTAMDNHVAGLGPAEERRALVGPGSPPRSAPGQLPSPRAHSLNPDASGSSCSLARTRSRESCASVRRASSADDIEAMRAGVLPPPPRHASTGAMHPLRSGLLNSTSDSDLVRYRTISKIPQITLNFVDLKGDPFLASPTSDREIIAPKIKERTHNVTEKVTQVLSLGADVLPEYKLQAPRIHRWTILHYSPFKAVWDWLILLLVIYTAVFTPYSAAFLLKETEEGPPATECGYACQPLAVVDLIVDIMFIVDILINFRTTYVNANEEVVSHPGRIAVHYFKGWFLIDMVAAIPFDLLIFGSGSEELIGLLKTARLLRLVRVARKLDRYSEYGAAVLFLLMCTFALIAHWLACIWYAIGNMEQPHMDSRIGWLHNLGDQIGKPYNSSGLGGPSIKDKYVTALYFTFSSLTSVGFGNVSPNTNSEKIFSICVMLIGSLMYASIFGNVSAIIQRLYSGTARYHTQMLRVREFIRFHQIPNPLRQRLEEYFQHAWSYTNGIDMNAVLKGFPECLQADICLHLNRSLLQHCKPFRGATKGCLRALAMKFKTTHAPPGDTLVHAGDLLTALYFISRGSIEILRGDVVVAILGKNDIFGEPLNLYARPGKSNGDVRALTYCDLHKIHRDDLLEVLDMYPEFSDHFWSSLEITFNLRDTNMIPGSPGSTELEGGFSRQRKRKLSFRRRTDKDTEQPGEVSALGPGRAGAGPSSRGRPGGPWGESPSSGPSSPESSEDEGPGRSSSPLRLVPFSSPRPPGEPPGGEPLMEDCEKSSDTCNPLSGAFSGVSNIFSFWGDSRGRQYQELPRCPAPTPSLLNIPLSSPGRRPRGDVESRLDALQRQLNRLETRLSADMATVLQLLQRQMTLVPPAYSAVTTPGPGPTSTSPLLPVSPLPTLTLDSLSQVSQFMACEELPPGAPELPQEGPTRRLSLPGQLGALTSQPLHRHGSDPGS

SMILES | solubility kinetic at 2 h [1] [µg/mL] | IC50 (hERG channels) [nM] | Absorption peak [2] [nm] | Absorbance × 10^4 [2] | IC50 at 3 days [3] [nM] | Tumor/background ratio (RT112 tumor [4]) | Uptake by UM-UC-3 with or without BSP [5] | Enrichment at the tumor sites (NIR fluorescence) (RT112 tumor [6])
CN(C)C1CC(/C=C/C2=[N+](C)c3ccccc3C2(C)C)=C(Cl)C(=C/C=C2/N(CCCCCC(=O)O)c3ccccc3C2(C)C)/C1 (stereo not shown) [Example 87] | 38 | 1420 | 785 | 1.91 | > 10000 | 3.3 |  | 
CC[N+]1=C(/C=C/C2=C(Cl)C(=C/C=C3/N(CCOCC(=O)Oc4ccccc4)c4ccccc4C3(C)C)/CCC2)C(C)(C)c2ccccc21 [Example 8, 2-((E)-2-((E)-2-chloro-3-(2-((E)-3,3-dimethyl-1-(2-(2-oxo-2-phenoxyethoxy)ethyl)indolin-2-ylidene)ethenyl)cyclohex-1-en-1-yl)ethenyl)-1-ethyl-3,3-dimethyl-3H-indol-1-ium Trifluoroacetate] |  |  | 794.5 | 1.96 |  |  | may be weakened or enhanced by BSP | specifically enriched at the tumor sites
COCCOCCOCCN1/C(=C/C=C2\CCCC(/C=C/C3=[N+](CCOCCOCCC(=O)O)c4ccccc4C3(C)C)=C2Cl)C(C)(C)c2ccccc21 [Example 70] | > 250 | 568 | 796.5 | 2.09 | > 10000 | 2.7 |  | 
CC[N+]1=C(/C=C/C2=C(Cl)C(=C/C=C3/N(CCCCCC(=O)Oc4ccccc4)c4ccccc4C3(C)C)/CCC2)C(C)(C)c2ccccc21.[Cl-] [Comparative Example 1, 2-((E)-2-((E)-2-chloro-3-(2-((E)-3,3-dimethyl-1-(6-oxo-6-phenoxyhexyl)indolin-2-ylidene)ethenyl)cyclohex-1-en-1-yl)ethenyl)-1-ethyl-3,3-dimethyl-3H-indol-1-ium Chloride, reference compound] | 5 | < 120 | 794.5 | 2.16 | 2700 | 2.4 |  | 
C[N+]1=C(/C=C/C2=C(Cl)C(=C/C=C3/N(CCOCCC(=O)Oc4ccccc4)c4ccccc4C3(C)C)/CCC2)C(C)(C)c2ccccc21.[Cl-] [Example 95] | 99 | 980 | 793.5 | 2.41 | > 10000 | 2.8 |  | 
COCCOCCOCCOCCN1/C(=C/C=C2\CCCC(/C=C/C3=[N+](CCOCCOCCC(=O)O)c4ccccc4C3(C)C)=C2Cl)C(C)(C)c2ccccc21 [Example 73, 1-(2-(2-(2-carboxyethoxy)ethoxy)ethyl)-2-((E)-2-((E)-2-chloro-3-(2-((E)-3,3-dimethyl-1-(2,5,8,11-tetraoxatridecan-13-yl)indolin-2-ylidene)ethenyl)cyclohex-1-en-1-yl)ethenyl)-3,3-dimethyl-3H-indol-1-ium Chloride] | > 250 | 1660 | 796.5 | 2.15 | > 10000 | 2.7 |  | 
COCCOCCN1/C(=C/C=C2\CCCC(/C=C/C3=[N+](CCOCCOCCC(=O)O)c4ccccc4C3(C)C)=C2Cl)C(C)(C)c2ccccc21 [Example 68, 1-(2-(2-(2-carboxyethoxy)ethoxy)ethyl)-2-((E)-2-((E)-2-chloro-3-(2-((E)-1-(2-(2-methoxyethoxy)ethyl)-3,3-dimethylindolin-2-ylidene)ethenyl)cyclohex-1-en-1-yl)ethenyl)-3,3-dimethyl-3H-indol-1-ium 2,2,2-trifluoroacetate] | > 250 | 890 | 796 | 2.74 | > 10000 | 2.5 |  | 
